PubChem BioAssay AID504528 (Sanford-Burnham Center for Chemical Genomics, 2011)
The source made the active and inactive calls.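 Rule for the calls: active = mean IC50 of 20 µM or lower; inactive = the rest.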

These compounds were tested on HEK-293T NF-kB-Luc cytotoxicity, resazurin fluorescence, 14 h (assay: cytotoxicity in HEK-293T NF-kB reporter cells, SAR follow-up, cytotoxicity control for B-cell antigen receptor NF-kB inhibitors (AID 504528)).

| Structure (SMILES) | IC50 |
| --- | --- |
| Cc1oc(-c2ccc(OC(F)(F)F)cc2)nc1CSCC(=O)NC1CC1 | > 79 µM (inactive) |
| CCNC(=O)CCc1nc(-c2c(Cl)cccc2Cl)no1 | > 79 µM (inactive) |
| CNC(=O)CCc1nc(-c2ccc(C(C)C)cc2)no1 | > 79 µM (inactive) |
| CCCCc1ccc(-c2noc(CCC(=O)NC(C)CC)n2)cc1 (configuration not stated) | > 79 µM (inactive) |
| CCOc1ccc(-c2nc(CSCC(=O)NC3CCC3)c(C)o2)cc1 | > 79 µM (inactive) |
| CCCCOc1ccc(-c2nc(CSCC(=O)NC3CC3)c(C)o2)cc1 | > 79 µM (inactive) |
| O=C(CCc1nc(-c2ccccc2)no1)NC1CC1 | > 79 µM (inactive) |
| CCc1ccc(-c2noc(CCC(=O)NC3CC3)n2)cc1 | > 79 µM (inactive) |
| CCC(C)NC(=O)CCc1nc(-c2ccc(C(C)C)cc2)no1 (configuration not stated) | > 79 µM (inactive) |
| CCNC(=O)CCc1nc(-c2ccccc2C)no1 | > 79 µM (inactive) |
| CCOc1ccc(-c2nc(CSCC(N)=O)c(C)o2)cc1 | > 79 µM (inactive) |
| C#CCNC(=O)CSCc1nc(-c2ccc(OCC)cc2)oc1C | > 79 µM (inactive) |
| COc1cccc(-c2cc(=O)c3cc(NC(=O)c4ccc(N(C)C)cc4)ccc3[nH]2)c1 | 2.25 µM |
| CCOc1ccccc1-c1nc(CSCC(=O)O)c(C)o1 | > 79 µM (inactive) |
| CCOc1ccc(-c2nc(CSCC(=O)O)c(C)o2)cc1 | > 79 µM (inactive) |
| CCNC(=O)CCc1nc(-c2ccc(CC)cc2)no1 | > 79 µM (inactive) |
| CCCCc1ccc(-c2noc(CCC(=O)NCC)n2)cc1 | > 79 µM (inactive) |
| CCC(C)NC(=O)CCc1nc(-c2ccc(C(C)(C)C)cc2)no1 (configuration not stated) | > 79 µM (inactive) |
| COc1cccc(-c2cc(=O)c3cc(NC(=O)c4ccccc4)ccc3[nH]2)c1 | 60.4 µM (inactive) |

| Structure (SMILES) | IC50 |
| --- | --- |
| CCOc1ccc(-c2nc(CSCC(=O)NC(C)(C)C)c(C)o2)cc1 | > 79 µM (inactive) |
| CCNC(=O)CCc1nc(-c2cccc(C)c2)no1 | > 79 µM (inactive) |
| CCCCOc1ccc(-c2nc(CSCC(=O)NCc3ccco3)c(C)o2)cc1 | > 79 µM (inactive) |
| Cc1ccc(-c2nc(CSCC(=O)NC3CC3)c(C)o2)cc1 | > 79 µM (inactive) |
| Cc1oc(-c2ccc(OC(F)(F)F)cc2)nc1CSCC(=O)O | > 79 µM (inactive) |
| CCOc1ccc(-c2nc(CSCC(=O)NC3CC3)c(-c3ccccc3)o2)cc1 | > 79 µM (inactive) |
| CCCCOc1ccc(-c2nc(CSCC(=O)O)c(C)o2)cc1 | > 79 µM (inactive) |
| CCOc1ccc(-c2nc(CSCC(=O)N(C)C)c(C)o2)cc1 | > 79 µM (inactive) |
| CCOC(=O)CC(NC(=O)c1ccc(Br)cc1)c1ccc(F)c([N+](=O)[O-])c1 (configuration not stated) | > 79 µM (inactive) |
| CCNC(=O)CCc1nc(-c2ccccc2Cl)no1 | > 79 µM (inactive) |
| CCCCc1ccc(-c2noc(CCC(=O)NC3CC3)n2)cc1 | > 79 µM (inactive) |
| CCNC(=O)CCc1nc(-c2cccc(F)c2)no1 | > 79 µM (inactive) |
| CC(C)c1ccc(-c2noc(CCC(=O)NC3CC3)n2)cc1 | > 79 µM (inactive) |
| CC(C)Nc1ccc(C(CC(=O)O)NC(=O)c2ccccc2)cc1[N+](=O)[O-] (configuration not stated) | > 79 µM (inactive) |
| CCOc1ccc(-c2nc(CSCC(=O)N3CCOCC3)c(C)o2)cc1 | > 79 µM (inactive) |
| Cc1oc(-c2ccc(C(F)(F)F)cc2)nc1CSCC(=O)NC1CC1 | > 79 µM (inactive) |
| CCCCc1ccc(-c2noc(CCC(=O)NC)n2)cc1 | > 79 µM (inactive) |
| CCOc1ccc(-c2nc(CSCC(=O)NC)c(C)o2)cc1 | > 79 µM (inactive) |
| CC(C)c1ccc(-c2noc(CCC(=O)NC(C)(C)C)n2)cc1 | > 79 µM (inactive) |

| Structure (SMILES) | IC50 |
| --- | --- |
| CCCOc1ccc(-c2nc(CSCC(=O)NC3CC3)c(C)o2)cc1 | > 79 µM (inactive) |
| Cc1ccc(-c2nc(CSCC(=O)NCc3ccco3)c(C)o2)cc1 | > 79 µM (inactive) |
| CCOc1cccc(-c2nc(CSCC(=O)NC3CC3)c(C)o2)c1 | > 79 µM (inactive) |
| CCNC(=O)CCc1nc(-c2ccc(C(C)C)cc2)no1 | > 79 µM (inactive) |
| CC(C)(C)c1ccc(-c2noc(CCC(=O)NC3CCC3)n2)cc1 | > 79 µM (inactive) |
| CCNC(=O)CCc1nc(-c2cccc(OC)c2)no1 | > 79 µM (inactive) |
| CC(C)(C)NC(=O)CCc1nc(-c2ccccc2)no1 | > 79 µM (inactive) |
| COc1ccc(C(=O)Nc2ccc3[nH]c(-c4cccc(OC)c4)cc(=O)c3c2)cc1 | > 79 µM (inactive) |
| CCc1ccc(-c2nc(CSCC(=O)NC3CC3)c(-c3ccccc3)o2)cc1 | > 79 µM (inactive) |
| CCc1ccc(-c2noc(CCC(=O)NC)n2)cc1 | > 79 µM (inactive) |
| Cc1oc(-c2ccc(C(F)(F)F)cc2)nc1CSCC(=O)O | > 79 µM (inactive) |
| CCOc1ccccc1-c1nc(CSCC(=O)NC2CC2)c(C)o1 | > 79 µM (inactive) |
| CCc1ccc(-c2noc(CCC(=O)NC(C)(C)C)n2)cc1 | > 79 µM (inactive) |
| CCCCc1ccc(-c2noc(CCC(=O)NC(C)(C)C)n2)cc1 | > 79 µM (inactive) |
| CCC(C)NC(=O)CCc1nc(-c2ccccc2)no1 (configuration not stated) | > 79 µM (inactive) |
| CCCOc1ccc(-c2nc(CSCC(=O)O)c(C)o2)cc1 | > 79 µM (inactive) |
| CCc1ccc(-c2noc(CCC(=O)NC(C)CC)n2)cc1 (configuration not stated) | > 79 µM (inactive) |
| CCCOc1ccc(-c2nc(CSCC(=O)NCc3ccco3)c(C)o2)cc1 | 59.8 µM (inactive) |
| CCOc1ccc(-c2nc(CSCC(=O)NCC3CC3)c(C)o2)cc1 | > 79 µM (inactive) |
